Reference: PubChem BioAssay AID179 (DTP/NCI, 2004)
Active and inactive are the calls of the source.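 Rule for the calls: active = compounds giving half or more protection of infected cells from virus-caused growth loss, again on retest; inactive = the rest.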 Where a SMILES comes first, the peptide text is derived from it. [ ]: non-standard residue; d: D form. The star is where a group is joined. ONb = O=[N+]([O-])c1ccc(CO*)cc1; Cbz = O=C(OCc1ccccc1)*; Boc = CC(C)(C)OC(=O)*; Lac = C[CH](O)C(=O)O; OBn = c1ccc(CO*)cc1

System: CEM cells HIV-1 protection, formazan growth assay
Test: NCI AIDS Antiviral Assay
Details: for IC50: measured here: growth of uninfected CEM cells
Method in brief: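 Human CEM cells, uninfected and HIV-1-infected, received five drug concentrations, and growth was read by soluble formazan assay. Compounds giving at least 50% protection were retested; reproducible 100% protection defined confirmed active.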

| Structure (SMILES) | EC50 [µM] | IC50 [µM] | outcome |
| --- | --- | --- | --- |
| CCOC(=O)C1=CC(C(=O)OCC)=C2C=CC=C3C=CC=C1N32 | > 57.5 | 12.9 | – |
| O=c1nc2[nH]nc(-c3ccccc3)c2n[nH]1 | – | – | inactive |
| COc1cc2c(cc1OC)C(C1CC1)ON(C)CC2 (stereo not drawn) | 158 | > 200 | – |
| CC1CC(C)S(=O)CS1 (stereo not drawn) | > 759 | > 759 | – |
| Cc1cc(CO)c(O)c(C(=O)CC2CC(=O)NC(=O)C2)c1 | > 200 | 57.5 | – |
| N#CC(NNC(=O)c1ccccc1O)c1ccc(O)cc1 (stereo not drawn) | > 331 | 1.95 | – |
| Fc1ccc2nncc(SCc3ccccc3)c2c1 | > 132 | 19.5 | – |
| CC(OC(=O)C(Cc1ccccc1)NC(=O)C(Cc1ccccc1)NC(=O)OC(C)(C)C)C(=O)OCc1ccccc1 (stereo not drawn) (Boc-Phe-Phe-[Lac]-OBn; configuration not given here) | > 200 | 105 | – |
| CC(C)Oc1c(O)c2c3c(oc(=O)n3C=CC2c2ccccc2)c1OC(C)C (stereo not drawn) | > 200 | 21.9 | – |
| CNC(=S)N/N=C/c1cccc(C)n1 | > 200 | 19.5 | – |
| Cn1c(=O)c2c(nc3sc4nc5ccccc5nc4n32)n(C)c1=O | > 200 | > 200 | – |
| CSc1ccc(-c2cn3ccsc3n2)c(O)c1 | > 85.1 | 17.4 | – |
| COc1ccc(-c2nc(N)c(C#N)c3c2CCSc2ccc(C)cc2-3)cc1OC | > 200 | 11.7 | – |
| CC1(Cl)C(=O)NC(=O)N([C@H]2C[C@H](O)[C@@H](CO)O2)C1N=[N+]=[N-] (stereo partly drawn) | > 200 | > 200 | – |
| c1cc2c(cc1C1OCC3C(c4ccc5c(c4)OCO5)OCC13)OCO2 (stereo not drawn) | > 100 | 58.9 | – |
| COC(=O)C12C3C4C1C1C2C3C41C(=O)N(C(C)C)C(C)C (stereo not drawn) | > 871 | > 871 | – |
| CCCCN(CCCC)c1c([N+](=O)[O-])c(=O)nc2ccccn12 | > 794 | 1.7 | – |
| O=C(CCCCCCCCC(=O)NCC1(c2ccccc2)CCNCC1)NCC1(c2ccccc2)CCNCC1 | > 100 | > 100 | – |
| CCOP(=O)(OCC)C(c1ccc(F)cc1)N(C(=O)NC(F)(F)F)c1ccc(OC)cc1 (stereo not drawn) | > 200 | > 200 | – |
| O=c1ccn(C2CCC3(CO)CC23)c(=O)[nH]1 (stereo not drawn) | > 50.1 | > 50.1 | – |

| Structure (SMILES) | EC50 [µM] | IC50 [µM] | outcome |
| --- | --- | --- | --- |
| Cc1cn(C2CCC(COP(=O)(OCC(=O)c3ccccc3)OCC(=O)c3ccccc3)O2)c(=O)[nH]c1=O (stereo not drawn) | 19.5 | > 200 | – |
| NNC(=O)C(O)C(O)C(=O)NN (stereo not drawn) | > 1410 | 631 | – |
| CCCCC(CC)CN=Cc1c(O)c(O)c(C(C)C)c2cc(C)c(-c3c(C)cc4c(C(C)C)c(O)c(O)c(C=NCC(CC)CCCC)c4c3O)c(O)c12 (stereo not drawn) | > 200 | 145 | – |
| COc1cccc2cc(C(=O)Nc3ccccc3)c(=N)oc12 | > 200 | > 200 | – |
| COc1ccc(N2C(=O)/C(=C(\C)c3cc4ccccc4oc3=O)N=C2c2cc([N+](=O)[O-])ccc2Cl)cc1 | > 10 | > 10 | – |
| COc1cnnc2c(C)c(-c3ccccc3)nn12 | > 200 | 46.8 | – |
| COC(=O)C1=C2c3ccccc3NC(=O)N2NC1C(=O)OC (stereo not drawn) | > 550 | 501 | – |
| Cc1cccc2c(O)cc(=O)oc12 | – | – | inactive |
| CSc1nc2c(c(O)c(C)c(=O)n2C2OC(COC(C)=O)C(OC(C)=O)C(OC(C)=O)C2OC(C)=O)c(=O)n1C (stereo not drawn) | > 44.7 | > 44.7 | – |
| CCCCCCCCCCCCN(O)C(=O)c1ccccc1 | > 17 | > 17 | – |
| O=C(NNc1ccnc2cc(Cl)ccc12)/C(=C/c1ccc2c(c1)OCO2)NC(=O)c1ccccc1 | > 100 | 8.51 | – |
| COC(=O)[C@](C)(Cc1ccccc1)NC(=O)[C@@H](C)N1[C@@H](c2ccccc2)COC1(C)C | > 200 | > 200 | – |
| Clc1ccc(CN2COc3c(cc(Cl)c4cccnc34)C2)c(Cl)c1 | > 100 | 1.74 | – |
| O=C(O)CCCCSCCCCC(=O)O | > 1070 | > 1070 | – |
| COc1c(Cl)cc(C(=CCNC(=O)C[C@H]2CC[C@@]3(C)[C@@H](CC[C@@H]4[C@@H]3CC[C@]3(C)[C@@H](CC(=O)NCC=C(c5cc(Cl)c(OC)c(C(=O)O)c5)c5cc(Cl)c(OC)c(C(=O)O)c5)CC[C@@H]43)C2)c2cc(Cl)c(OC)c(C(=O)O)c2)cc1C(=O)O | 42.7 | 186 | – |
| Cc1noc(C)c1N=Nc1ccc2nonc2c1N | > 200 | > 200 | – |
| CC(C)CC(NC(=O)C(Cc1cnc[nH]1)NC(=O)C(Cc1ccccc1)NC(=O)C1CCCN1C(=O)OCc1ccccc1)C(=O)NC(CC(C)C)C(=O)NC(C(=O)NC(Cc1ccc(O)cc1)C(=O)NC(CO)C(=O)OCc1ccc([N+](=O)[O-])cc1)C(C)C (stereo not drawn) (Cbz-PFHLLVYS-ONb; configuration not given here) | > 11 | > 11 | – |
| N#CC1=C(C#N)SCCCS1 | > 14.8 | > 14.8 | – |
| CC(C)(C)c1cc(Nc2ccc([N+](=O)[O-])cc2[N+](=O)[O-])cc(C(C)(C)C)c1O | > 13.5 | > 13.5 | – |
| Cc1cc(C)c(-c2no/c(=N\S(=O)(=O)c3ccc(Cl)cc3)o2)c(C)c1 | > 200 | > 200 | – |
